Where two headings read alike, the source gives them in different places.
Legend:
[1] = test system: Aβ42; experiment: Aβ lowering in brain uptake animals; assay type: in vivo; details: NTg mice
Protocol: Compound 2 and other hydantoins were produced (see, e.g., compounds 1-5 pharmacokinetic evaluation of these hydantoins was determined in brain uptake assays using NTg mice (see, e.g., Table 1). It was also determined that Compound 1 lowered Aβ42 in the same animals at 5 mpk, while compound 3 lowered Aβ at 1 mpk.

[2] = biological target: T1, BACE1 (Homo sapiens, UniProt P56817); experiment: BACE1 P5-P5′ fluorescence substrate assay (APP-BACE1 IC50); assay type: biochemical; details: Table 1; read-out: BACE IC50
T1 construct: purchased R&D 931-AS-050
T1 sequence (P56817 46-501): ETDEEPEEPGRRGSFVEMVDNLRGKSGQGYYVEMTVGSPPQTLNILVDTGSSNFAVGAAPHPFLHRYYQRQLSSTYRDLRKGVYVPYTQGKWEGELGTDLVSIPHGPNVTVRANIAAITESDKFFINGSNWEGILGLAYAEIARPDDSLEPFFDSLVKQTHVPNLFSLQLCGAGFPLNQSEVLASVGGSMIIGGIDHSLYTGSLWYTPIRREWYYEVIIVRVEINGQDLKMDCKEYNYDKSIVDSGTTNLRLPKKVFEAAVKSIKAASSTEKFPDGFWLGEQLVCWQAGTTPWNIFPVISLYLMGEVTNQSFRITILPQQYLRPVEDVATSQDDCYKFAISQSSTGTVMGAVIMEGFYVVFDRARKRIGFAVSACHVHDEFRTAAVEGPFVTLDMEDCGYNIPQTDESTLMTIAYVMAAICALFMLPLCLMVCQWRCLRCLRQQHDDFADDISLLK
Protocol: In one illustrative embodiment, an MBP-C125 APP695 wt fusion protein can be used as one of the substrates and the second substrate can be the commercially available P5-P5′ fluorescence substrate.
Briefly, 0.01 units of BACE1 were incubated for 1 h at room temperature with a BACE inhibitor, then the substrate was added to each well and the fluorescence was read immediately and every 30 min for 2 h. Activity was determine by dividing the fluorescence at a specific [BACE inhibitor] by the fluorescence at [BACE inhibitor]=0 μM, the % activity was plotted vs log[BACE inhibitor] to determine the APP-BACE1 using GraphPad Prism 5 (FIG. 6A)

[3] = biological target: T2, TRX-eAPP575-624 (Homo sapiens, UniProt P05067); experiment: SPR (Biacore) binding to ectodomain of APP
T2 construct: residues 575-624 of the APP ectodomain; made in house
T2 sequence (P05067 650-699): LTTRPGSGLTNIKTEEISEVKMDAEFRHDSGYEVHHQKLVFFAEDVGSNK
Protocol: The binding affinity of the compounds for the ectodomain of APP was determined using SPR. […] The eAPP was crosslinked linked to the CM5 Biacore chips (GE Healthcare).
FC1 served as a reference cell following a mock immobilization with buffer alone. For all cells, the flow rate was 10 μl per min. The chip was blocked with 1M ethanolamine (pH 8.5). […] Binding traces were recorded for each dilution with a binding phase of 60 seconds and a dissociation phase of 240 seconds. Each cycle was performed at 20° C. with a constant flow rate of 20 μl/min. An additional 240 seconds of buffer flow at 60 μl per min across the cells was applied as a regeneration phase to facilitate complete dissociation of the compound from the protein. The sensograms were obtained by subtraction of the reference and buffer signals using the Biacore T100 Evaluation software. The binding curves were modeled with the PRISM (Graphpad Inc).

[4] = test system: Aβ1-42 in SH-SY5Y neuroblastoma cells; experiment: Aβ1-42 in SH-SY5Y cells (ELISA); assay type: cell-based, human; details: FIG. 5
Protocol: SH-SY5Y neuroblastoma cells were seeded at 50,000 cells/well in a 96 wells plate for 24 h. Then their medium was changed for fresh medium supplemented with desired concentration of the hydantoin compound (e.g. compound 3). After 24 h, 20 μl of the medium was added to 2 μl of the complete protease inhibitor with 1 μM EDTA and kept at 4° C. until analysis using the ELISA assay below.
ELISA kits from Invitrogen were also used to quantify Aβ1-42 (KHB3544) in duplicate. For the Aβ1-42 ultrasensitive ELISA, samples were diluted 1:2 (50 μl CSF plus 50 μl kit-provided standard diluent buffer). Assays were performed according to manufacturer's instructions. In short, standards and samples were added to a plate pre-coated with a monoclonal capture antibody specific for the amino terminus of Hu Aβ. The samples were co-incubated with a rabbit detection antibody (Ab) specific for the carboxy terminus of the Aβ species being assayed for 3 hr at room temperature overnight at 4°(Aβ1-42) with gentle rocking. After washing, bound rabbit Ab was detected using a horseradish peroxidase-labeled anti-rabbit secondary Ab. After washing again, bound HRP-anti rabbit Ab was detected colorimetrically (Spectramax 190, Molecular Devices) by the addition of a substrate solution. […]

[5] = Table 1, SPR, read-out: APP binding Kd

SMILES | IC50 [2] [nM] | Kd [3, 5] [nM] | also measured
CN1C(=O)C(c2ccccc2)(c2cc(F)cc(F)c2)N=C1N (stereo not drawn) [FAH-1] | 3000 |  | lowering of Aβ42 in vivo ([1]; 5 mpk): lowered Aβ42
CN1C(=O)C(c2ccc(OC(F)F)cc2)(c2cc(F)cc(F)c2)N=C1N (stereo not drawn) [FAH-2, 2-amino-4-(4-(difluoromethoxy)phenyl)-4-(3,5-difluorophenyl)-1-methyl-1H-imidazol-5(4H)-one] | 2000 | 8000 | 
Cc1cc(C2(c3cc(F)cc(F)c3)N=C(N)N(C)C2=O)ccc1OC(F)F (stereo not drawn) [FAH-3, 2-amino-4-(4-(difluoromethoxy)-3-methylphenyl)-4-(3,5-difluorophenyl)-1-methyl-1H-imidazol-5(4H)-one] | 520 |  | inhibition of Aβ production [4]: inhibition of Aβ production; binding to eAPP (qualitative) ([3]; SPR / BiaCore, FIG. 4): binding to eAPP575-624; lowering of Aβ in vivo ([1]; 1 mpk): lowered Aβ
CN1C(=O)C(c2cc(F)cc(F)c2)(c2cccc(OC(F)F)c2)N=C1N (stereo not drawn) [FAH-4, 2-amino-4-(3-(difluoromethoxy)phenyl)-4-(3,5-difluorophenyl)-1-methyl-1H-imidazol-5(4H)-one] | 2100 |  | 
Cc1cc(C)cc(C2(c3cc(F)cc(F)c3)N=C(N)N(C)C2=O)c1 (stereo not drawn) [FAH-5, 2-amino-4-(3,5-difluorophenyl)-4-(3,5-dimethylphenyl)-1-methyl-1H-imidazol-5(4H)-one] | 5000 |  | 
Cc1cc(C2(c3cccc(F)c3)N=C(N)N(C)C2=O)ccc1OC(F)F (stereo not drawn) [FAH-17, 2-amino-4-(4-(difluoromethoxy)-3-methylphenyl)-4-(3-fluorophenyl)-1-methyl-1H-imidazol-5(4H)-one] |  | < 1000 | Kd ([3]; Table 5, Secondary Screen, read-out: APP Kd): < 1000 nM
